Assay results taken from PubChem BioAssay (NCI).
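Tested at 5 concentrations; 48 h exposure; 96-well plates; endpoints linearly interpolated, else capped at highest concentration. The concentration for full growth arrest is given as TGI.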

Experiments:
Assay in all cases: inhibition of tumour cell growth, NCI panel, 48 h
786-0 renal = test system: 786-0 renal
BT-549 breast = test system: BT-549 breast
DU-145 prostate = test system: DU-145 prostate
HCT-116 colon = test system: HCT-116 colon
HCT-15 colon = test system: HCT-15 colon
HL-60(TB) leukemia = test system: HL-60(TB) leukemia
IGROV1 ovarian = test system: IGROV1 ovarian
M14 melanoma = test system: M14 melanoma
MALME-3M melanoma = test system: MALME-3M melanoma
NCI/ADR-RES ovarian = test system: NCI/ADR-RES ovarian
OVCAR-4 ovarian = test system: OVCAR-4 ovarian
OVCAR-8 ovarian = test system: OVCAR-8 ovarian
PC-3 prostate = test system: PC-3 prostate
RPMI-8226 leukemia = test system: RPMI-8226 leukemia
T-47D breast = test system: T-47D breast
TK-10 renal = test system: TK-10 renal
U251 CNS = test system: U251 CNS
UACC-257 melanoma = test system: UACC-257 melanoma
UACC-62 melanoma = test system: UACC-62 melanoma
SNB-75 CNS = test system: SNB-75 CNS

Row | Compound | TGI (786-0 renal) [µM] | TGI (BT-549 breast) [µM] | TGI (DU-145 prostate) [µM] | TGI (HCT-116 colon) [µM] | TGI (HCT-15 colon) [µM] | TGI (HL-60(TB) leukemia) [µM] | TGI (IGROV1 ovarian) [µM] | TGI (M14 melanoma) [µM] | TGI (MALME-3M melanoma) [µM] | TGI (NCI/ADR-RES ovarian) [µM] | TGI (OVCAR-4 ovarian) [µM] | TGI (OVCAR-8 ovarian) [µM] | TGI (PC-3 prostate) [µM] | TGI (RPMI-8226 leukemia) [µM] | TGI (T-47D breast) [µM] | TGI (TK-10 renal) [µM] | TGI (U251 CNS) [µM] | TGI (UACC-257 melanoma) [µM] | TGI (UACC-62 melanoma) [µM] | TGI (SNB-75 CNS) [µM]
1 | C[N+](C)([O-])Cc1cccc(NC(=O)c2ccc(C(=O)Nc3cccc(C[N+](C)(C)[O-])c3)cc2)c1 | > 100 | > 100 | > 100 | > 100 | > 100 | > 100 | > 100 | > 100 | > 100 | > 100 | > 100 | > 100 | > 100 | > 100 | > 100 | > 100 | > 100 | > 100 | > 100 | –
2 | CCOC(=O)C1(C/C=C\CBr)CCCCCCC1=O (configuration not stated) | > 100 | > 100 | > 100 | > 100 | > 100 | > 100 | > 100 | > 100 | > 100 | > 100 | > 100 | > 100 | > 100 | – | > 100 | > 100 | > 100 | > 100 | > 100 | > 100
3 | Cc1ccc(-n2cc(-c3ccc(Cl)cc3)c3c(NNC(=S)NCc4ccccc4)ncnc32)cc1 | 51.1 | 83 | > 100 | 16.8 | 68.2 | > 100 | 54.4 | 37.6 | > 100 | 32.8 | > 100 | 69.3 | 23.1 | > 100 | > 100 | 68.2 | 48.6 | 48 | 64.8 | –
4 | COc1cccc2c(NNc3ccc(Cl)cc3)c3ccc([N+](=O)[O-])cc3nc12 | 21.2 | 29.8 | 53.5 | 20.3 | 27.3 | 28.8 | – | 41.6 | 22 | – | 30.9 | – | 26.1 | > 100 | 61.8 | 25.8 | 31.2 | 55.2 | 26.3 | –
5 | CC(C)(C)OC(=O)N(CCCN)CCCCN(CCCN)C(=O)OC(C)(C)C | > 100 | > 100 | > 100 | > 100 | > 100 | > 100 | > 100 | > 100 | – | > 100 | > 100 | > 100 | > 100 | > 100 | > 100 | > 100 | > 100 | > 100 | > 100 | > 100
6 | O=C1CSC(c2ccc(Cl)cc2)N1c1ccc(-n2c(-c3ccccc3)nc3ccccc3c2=O)cc1 (configuration not stated) | > 100 | > 100 | – | > 100 | > 100 | – | > 100 | > 100 | > 100 | > 100 | 41 | > 100 | > 100 | > 100 | > 100 | > 100 | > 100 | > 100 | > 100 | 69
7 | Cc1c2cccc-2c(N(C)C)cc2c1[nH]c1ccccc12 | 12 | 8.19 | 28.7 | 12.6 | 13.6 | 5.74 | 4.9 | 18.9 | 10.9 | 13.4 | – | 10.3 | 5.33 | 5.73 | 5.09 | 13.2 | 4.01 | 26.4 | – | –
8 | Clc1ccc(CCN2CCN(CCCc3ccccc3)CC2)cc1Cl | 30.2 | 29.4 | 30.4 | 28.4 | 27.8 | 44.7 | 31.3 | 28.1 | 33.8 | 28.5 | 31.4 | 30.4 | 31.6 | 55.2 | 35.1 | 30.1 | 31.9 | 31.3 | 31.5 | –
9 | COC(=O)c1cc(CNCCc2c[nH]c3ccccc23)on1 | > 94.6 | – | > 100 | > 100 | > 100 | > 100 | > 100 | > 100 | > 100 | > 100 | > 83.3 | > 100 | > 100 | > 100 | > 100 | > 100 | > 100 | > 100 | > 100 | > 100
10 | COc1c(-c2ccc3c(c2)OCO3)oc2cc3c(c(OC)c2c1=O)OCO3 | > 100 | 46.6 | > 100 | 39.3 | > 100 | 4.1 | 55.1 | > 100 | 67.6 | 85.5 | 70.1 | 42.4 | 58 | – | 36.7 | 80.4 | 36.7 | > 100 | 64.1 | 44.9
11 | O=S(=O)(N1CCCCN(S(=O)(=O)C(F)(F)F)CCCN(S(=O)(=O)C(F)(F)F)CCCN(S(=O)(=O)C(F)(F)F)CCCCN(S(=O)(=O)C(F)(F)F)CCCN(S(=O)(=O)C(F)(F)F)CCC1)C(F)(F)F | 35.3 | 73.2 | > 100 | > 100 | > 100 | > 100 | > 100 | > 100 | 49.5 | > 100 | > 100 | > 100 | > 100 | – | > 100 | > 100 | 64.1 | > 100 | > 100 | 92.8
12 | COC(=O)C(I(OS(=O)(=O)c1ccc(C)cc1)c1ccccc1)=P(c1ccccc1)(c1ccccc1)c1ccccc1 | 28.9 | 45.5 | 32.4 | 30.2 | > 100 | 45.5 | 37.7 | 32.4 | 21.6 | > 100 | 27 | 48.1 | 62 | 24.2 | 48.2 | 57 | 40.7 | 37.1 | 35.1 | –
